Here are results for three compounds from patent US5420276A, “Analogs of oxetanyl purines and pyrimidines” (Abbott Laboratories, priority 1993, dated 1995).

Values after ≈ are worked out from the molar mass of the structure shown. Read-outs that look alike come from different tables or passages of the source.

What all share (type): cell-based
Series [1] relates to Human Cytomegalovirus (HCMV) strain AD169. Put plainly: HCMV virus yield reduction assay. As to conditions: Human betaherpesvirus 5, AD169, 144 h, MRC5 cells; for log reduction at 3.2 µg/mL: 3.2 μg/ml; for log reduction at 10 µg/mL: 10 μg/ml. As for the experimental part:
Human diploid embryonic lung (MRC5) cells were grown in 35 mm wells of 6-well tissue culture plates. Subconfluent cell monolayers were rinsed with phosphate-buffered saline (PBS) and were exposed to 0.5 ml/well of HCMV (strain AD169) suspension for 1.5 hours at 37° C. The virus suspension was diluted in MEM+2% fetal bovine serum (FBS) to yield a multipicity of infection (MOI) of approximately 0.1 plaque forming units (PFU)/cell. Following the virus adsorption period, the inocula were removed and infected cell layers were rinsed with PBS. Aliquiots (2.0 ml) of each test drug concentration (dissolved in MEM supplemented with 2% FBS) were dispensed into triplicate cell cultures: two virus-infected cultures and one uninfected cytotoxicity control culture (exposed to medium without virus for 1.5 hours). Untreated virus-infected control cultures and untreated, uninfected cell control cultures were fed with medium alone. The culture plates were incubated at 37° C. in a humidified atmosphere of 2% CO2 in air. All cell culture fluids were replaced with fresh drug and medium 48 hours postinfection (p.i.). On Day 6 p.i., the cell layers were examined microscopically for cytopathogenic effect (CPE) and drug cytotoxicity. The test and virus control cultures were then harvested by subjecting the cell layers to one cycle of freeze-thawing. The cellular material was scraped into the ambient medium and the contents from replicate cultures were pooled, dispensed into cryotubes and stored at -135° C. The harvested test and virus control samples were thawed and the infectious virus yield was determined by plaque assay in MRC5 cells grown in 12-well cluster plates. Inhibition of HCMV replication by each test compound was determined by comparing the progeny virus yields in the drug-treated cultures with the progeny virus yield in the untreated, virus-infected control cultures.

In series [2] the test system is Varicella-Zoster Virus (VZV) clinical isolate DM625. Put plainly: VZV plaque reduction assay. Conditions: Human alphaherpesvirus 3, 144 h, VZV in HFF; for EC50: minimum concentration required to inhibit plaque formation by 50%, read-out: MIC50. As for the experimental part: The compounds of the invention were evaluated for selective activity against varicella zoster virus (VCV) utilizing a plaque reduction assay procedure. The challenge virus was a clinical isolate designated DM625, obtained from Dr. Richard Whitley of the University of Alabama Hospitals, Birmingham, Ala. The virus had been passaged and titrated in cultures of human foreskin fibroblasts (HFF).
(§1) For the plaque reduction assay, sixth to twelfth passage human foreskin fibroblasts were seeded in wells of 12-well tissue culture plates and incubated at 37° C. in a humidified atmosphere containing 2% CO2 in air. Subconfluent HFF were rinsed with MEM and exposed to 0.5 ml/well of a suspension of VZV diluted in MEM+2% FBS for 2 hours at 37° C. Following the virus adsorption period, the inocula were removed and the infected cell layers were rinsed with MEM. Triplicate VZV-infected cell culture wells were treated with 1.0 ml of each concentration of test compound (in MEM+2% FBS). Six untreated virus-infected cell cultures and triplicate untreated uninfected cell cultures were fed with 1.0 ml of MEM+2% FBS to serve as controls. Wells containing uninfected HFF were treated with each concentration of test compound to monitor the test compound cytotoxicity. The 12-well plates were incubated at 37° C. in the CO2 incubator. At 48 hours post-virus infection (p.i.), fluids in all plate wells were replaced with fresh test compound and/or culture medium.
Six days p.i., the VZV plaques were counted (unstained, low magnification).The effect of each concentration of test compound on plaque formation was determined by comparing the mean number of plaques in the replicate test compound-treated cultures with the mean plaque counts of the untreated virus control cultures.
The MIC50 value is the minimum concentration of test Compound required to inhibit plaque formation by 50%.
On the technique in general: Plaque reduction counts the foci of infection that form in a cell layer.

Series [3] is described as follows: Drug cytotoxicity in Vero cells (microscopic, CPE-inhibition assay). Conditions: african green monkey, minimum drug concentration causing any cytotoxicity, read-out: MTC. As for the experimental part:
Mammalian cells were pregrown as monolayers in wells of COSTAR 96-well tissue culture plates using suitable cell culture media. Stock viruses were pretitered according to the method of Reed and Muench (Amer. J. Hyg. 27:493-497, 1938) and diluted in cell culture medium to yield 32 CCID50 (cell culture infectious dose, 50%) units per 0.1 ml. Antiviral assays were designed to test seven concentrations of each compound, from cytotoxic to noncytotoxic levels, in triplicate against each of the challenge viruses in microtiter plate wells containing suitable cell monolayers. To each of the replicate cell cultures were added 0.1 ml of the test drug solution and 0.1 ml of virus suspension. Cell controls containing medium alone, virus controls containing medium and virus, and drug cytotoxicity controls containing medium and each drug concentration were run simultaneously with the test samples assayed in each experiment. […] The cell monolayers were examined microscopically for virus-induced CPE and for drug cytotoxicity.
Antiviral activity was determined by calculating the degree of inhibition of virus-induced CPE in drug-treated, virus-infected cell cultures by means of a virus rating (VR). The VR is a standard weighted measurement of antiviral activity taking into account both the degree of CPE inhibition and drug cytotoxicity, and is determined by a modification of the method of Ehrlich et al. (Ann. N.Y. Acad. Sci. 130: 5-16, 1965) as described below. CPE was graded for each individual culture in each microtiter plate well according to the following scale:
The minimum inhibitory drug concentration which reduced the cytopathogenic effect (CPE) by 50% (MIC50) was calculated by using a regression analysis program for semilog curve fitting. A therapeutic index (TI) for each active compound for each susceptible virus was determined by dividing the minimum cytotoxic concentration of the test compound by the MIC50.

Series [4] can be described thus: MTT test compound cytotoxicity in human foreskin fibroblasts. As to conditions: hff cells, read-out: MTT assay (Percent of control). As for the experimental part: as §1
The test compound cytotoxicity control cultures were examined microscopically for gross morphologic changes, then treated with MTT and 30% SDS. The blue color of the MTT formazan was measured spectrophotometrically at 570 nm. Test compound cytotoxicity was determined by comparing the absorbance (O.D.) of each test compound control with the mean O.D. of the cell control cultures and expressed as percent of control.
On the technique in general: Tetrazolium assays rely on reduction of a dye to a coloured formazan, in cell work by metabolically active cells.

As to `Nc1ccn([C@@H]2O[C@H](CO)[C@H]2CO)c(=O)n1` [Example 22, 1-([2'R,3'R,4'S]-3',4'-Bis(hydroxymethyl)-2'-oxetanyl)cytosine], the log reduction at 0.032 µg/mL in series [1] (0.032 μg/ml) was determined as 0.8. This compound also gave a log reduction at 0.1 µg/mL in series [1] (0.1 μg/ml) of 1.4. Further, in series [1] (0.32 μg/ml), the log reduction at 0.32 µg/mL was 1.9. In addition, the log reduction at 1 µg/mL in series [1] (1.0 μg/ml) turned out to be 4.1. Moreover, in series [1], the log reduction at 3.2 µg/mL was more than 4.4 and the log reduction at 10 µg/mL was more than 4.4. Moreover, in series [2], the inhibition (commonly the share of the control response that was lost under treatment) at 0.032 µM was 29%, the inhibition at 0.1 µM stood at 86%, the inhibition at 0.32 µM stood at 100% and at 1 µM the inhibition was 100%. Also, in series [2], the inhibition at 3.2 µM stood at 100% and the EC50 was 0.07 µg/mL (≈ 0.308 µM). For the same compound, the MCC in series [3] (HSV-1 (E-377)) stood at 10 µg/mL. In addition, in series [3] (HSV-2 (MS)), the MCC was 10 µg/mL. Further, in series [4], the viability at 0.1 µM came to 88%, the viability at 0.32 µM is 81%, the viability at 1 µM turned out to be 77% and the viability at 3.2 µM stood at 76%.

On to `O=c1ccn([C@@H]2O[C@H](CO)[C@H]2CO)c(=O)[nH]1` [Example 23, 1-([2'R,3'R,4'S]-3',4'-Bis(hydroxymethyl)-2'-oxetanyl)uracil], for which, in series [1], the log reduction at 3.2 µg/mL is 0.2 and the log reduction at 10 µg/mL came to 0.4. The same compound registered a log reduction at 32 µg/mL in series [1] (32 μg/ml) of 0.5. In series [1] (100 μg/ml), this compound yielded a log reduction at 100 µg/mL of 0.9. Also, the log reduction at 320 µg/mL in series [1] (320 μg/ml) was 1.9. In addition, in series [2], the inhibition at 1 µM stood at 22%, the inhibition at 3.2 µM was 22% and the EC50 worked out at 19.4 µg/mL (≈ 85 µM). In series [2] (10 μM), this compound registered an inhibition at 10 µM of 34%. Also, in series [2] (32 μM), testing at 32 µM gave an inhibition of 84%. The inhibition at 100 µM in series [2] (100 μM) is 100%. Also, testing at 320 µM in series [2] (320 μM) gave an inhibition of 100%. Further, the MCC in series [3] (HSV-1 (E-377)) came out at 320 µg/mL. Also, the MCC in series [3] (HSV-2 (MS)) came out at 320 µg/mL. For the same compound, the viability at 3.2 µM in series [4] came to 82%. Further, the viability at 10 µM in series [4] (10 μM) turned out to be 84%. Further, the viability at 32 µM in series [4] (32 μM) turned out to be 87%. Further, in series [4] (100 μM), the viability at 100 µM was 88%. Further, the viability at 320 µM in series [4] (320 μM) is 82%.

In series [2] (0.0001 μM), `O=c1[nH]c(=O)n([C@@H]2O[C@H](CO)[C@H]2CO)cc1C=CBr` [Example 44, 1-([2'R, 3'R, 4'S]-3',4'-Bis(hydroxymethyl)-2'-oxetanyl)-5-(2-bromo-1-vinyl)uracil] returned an inhibition at 0.0001 µM of 3%. The compound further yielded an inhibition at 0.00032 µM in series [2] (0.00032 μM) of 6%. The inhibition at 0.001 µM in series [2] (0.001 μM) came to 4%. In series [2] (0.0032 μM), the inhibition at 0.0032 µM stood at 16%. The same compound registered an inhibition at 0.01 µM in series [2] (0.01 μM) of 54%. In series [2], this compound had an inhibition at 0.032 µM of 97%, an inhibition at 0.1 µM of 98%, an inhibition at 0.32 µM of 99% and an inhibition at 1 µM of 99%. Besides, in series [2], the inhibition at 3.2 µM is 100% and the EC50 stood at 0.0032 µg/mL (≈ 0.00961 µM). Further, the viability at 0.0001 µM in series [4] (0.0001 μM) came out at 99%. In series [4] (0.00032 μM), the viability at 0.00032 µM stood at 98%. Besides, the viability at 0.001 µM in series [4] (0.001 μM) was 93%. In addition, in series [4] (0.0032 μM), the viability at 0.0032 µM is 100%. Further, the viability at 0.01 µM in series [4] (0.01 μM) was determined as 97%. Besides, the viability at 0.032 µM in series [4] (0.032 μM) amounted to 94%. In series [4], the viability at 0.1 µM was found to be 92%, the viability at 0.32 µM is 92%, the viability at 1 µM was determined as 100% and the viability at 3.2 µM worked out at 100%.
